# Reference: patent publication US9856225B2, “Substituted phenazines as antimicrobial agents” (University of Florida Research Foundation, Incorporated, priority 2013, dated 2018)
# Entries after “also recorded” stand apart in the source; their conditions may differ. Like-named read-outs stand apart in the source and are kept apart here. Marks after values point to notes of the source that are not given here.
# What was measured:
# Assay type in all cases: cell-based
# [1] = system: Staphylococcus aureus (ATCC 25923); experiment: MIC broth microdilution (CLSI), Luria Broth
# Method: Antibiotic Susceptibility Tests (MIC Assay Protocol). The minimum inhibitory concentration (MIC) for each compound described herein was determined by the broth microdilution method as recommended by the Clinical and Laboratory Standards Institute (CLSI) (Clinical and Laboratory Standards Institute. 2009. Methods for dilution antimicrobial susceptibility tests for bacteria that grow aerobically; approved standard, eighth edition (M7-A8)). In a 96-well plate, eleven two-fold serial dilutions of each compound were made in a final volume of 100 μL Luria Broth (one column served as a blank; see the MIC assay described herein). Each well was inoculated with 10^5 bacterial cells at the initial time of incubation, prepared from a fresh log phase culture (OD600 of 0.5). […] The concentration range tested for each compound during this study was 0.10 to 100 μM. DMSO served as the vehicle and negative control in each microdilution MIC assay. DMSO was serially diluted at the same concentration as the compounds with a top concentration of 1% v/v. Bacterial strains used: Staphylococcus aureus (ATCC 25923), Staphylococcus epidermidis (ATCC 12228) and Pseudomonas aeruginosa (PAO1). Kanamycin was used as a positive control against Staphylococcus aureus and Staphylococcus epidermidis.
# [2] = system: Staphylococcus aureus (ATCC 25923) biofilm; experiment: Biofilm inhibition, crystal violet staining; parameters: MIC/IC50 Biofilm: unit not given here; conditions: for IC50: Staphylococcus aureus; for MIC/IC50 Biofilm: ratio of MIC to IC50 of biofilm inhibition; for Phenotype: planktonic growth vs biofilm formation
# Method: Biofilm Inhibition Protocol for S. aureus (ATCC 25923). A serial two-fold dilution of 2× bromophenazine small molecule concentration was made in 100 μL tryptic soy broth (TSB) medium with 0.5% glucose were delivered into 0.1% gelatin (Millipore) coated 96-well tissue culture plates. […] To each well, 100 μL of TSB with 0.5% glucose containing 2×10^6 CFU/mL Staphylococcus aureus cells, prepared from fresh culture (OD600 of 0.8), was added. The plates were incubated at 37° C. for 24 hours. The wells were gently rinsed by submerging the entire plates in a tub of cold, running tap water. The wells were then fixed with 200 μL methanol for 15 minutes. After the plates were air dried, the biofilms were stained with 100 μL of 1% crystal violet for 10 minutes. The plates were again rinsed with running water. After drying in air, quantitative assessment of biofilm formation was obtained by extracting the crystal violet associated with the remaining biofilm with 100 μL per well of the following bleaching solution (methanol:glacial acetic acid:water (v/v/v)=4:1:5). This bleaching solution dissolved the bound crystal violet and produced a violet-colored solution in each well. The intensity of coloration was determined by measuring the absorbance at 540 nm.
# [3] = system: Acinetobacter baumannii (ATCC 19606) biofilm; experiment: Biofilm inhibition, Mueller-Hinton broth, crystal violet; conditions: for inhibition at 100 µM: Acinetobacter baumannii
# Method: (§1) Biofilm Inhibition Protocol for A. baumannii (ATCC 19606): In a 96-well plate, ten two-fold serial dilutions of each compound tested were made from the highest concentration tested (100 μM) in a final volume of 100 μL in Mueller-Hinton broth (one column served as a blank). Each well was inoculated with ˜7×10^6 colony forming units per milliliter (corresponding to an OD600 of 0.01 prepared directly from an overnight culture). A lid was placed on the 96-well plate which was wrapped in suran wrap, placed in a humidifying chamber and incubated under static conditions at 37° C. for 24 hours. Following incubation, the media and planktonic bacteria were then removed from 96-well plates and the wells were then washed with water. The bacterial biofilms within the microtiter wells were stained with 200 μL of an aqueous 0.1% crystal violet solution that was allowed to stand for 10-20 minutes. The crystal violet stain was then removed, the wells were rinsed with water and dried. The crystal violet stain that remained on the inside of the wells (i.e., stained bacterial biofilm) on the inside of the wells was solubilized by the addition of 200 μL ethanol and absorbance was read at OD540 using a spectrophotometer. NOTE: The concentration range tested for each compound was 0.2-100 μM. Single data points for all compounds and DMSO controls were tested in two replicate rows in 96-well plates and corresponding absorbance readings were averaged for the quantification of planktonic growth and biofilm formation. Reported percent biofilm inhibition was determined by the comparison of compound treated wells (the average of the two replicate wells) versus vehicle control wells without compound following background subtraction (i.e., an empty, untreated well) and reported from 2 to 4 independent overnight cultures. DMSO was serially diluted at the same concentration as test compounds with a top concentration of 1% v/v.
# (§2) The bromophenazines were also evaluated against the Gram-negative bacterium Acinetobacter baumannii in order to identify biofilm modulating small molecules against this emerging pathogen. Acinetobacter baumannii is notorious for its ability to persist as bacterial biofilms on hospital surfaces, giving rise to many multidrug-resistant nosocomial infections. Clinical isolates of A. baumannii have been identified that are resistant to every class of antibiotic clinically used. The bromophenazines were evaluated against Acinetobacter baumannii ATCC 19606 in biofilm inhibition assays. Bromophenazines were allowed to incubate in 96-well plates with Acinetobacter baumannii (˜7×10^6 CFUmL^−1 by adjusting an overnight culture to an OD600˜0.01) for 24 hours at 37° C. using Mueller-Hinton broth followed by spectrophometer readings of each plate to evaluate planktonic growth (OD600) and biofilm formation (OD540 after crystal violet stain of biofilms inside microtiter wells). […] This biofilm inhibition with activation of planktonic growth activity was dose-dependent with bromophenazine 17a (see FIG. 20).
# [4] = system: Acinetobacter baumannii (ATCC 19606); experiment: Planktonic growth (OD600) in biofilm inhibition assay; conditions: for increase in planktonic growth: OD600; for inhibition of growth at 100 µM: Acinetobacter baumannii, ATCC19606, 24 h, read-out: % Growth Inhibition at 100 μM
# Method: as §1, with “Each” for “Biofilm Inhibition Protocol for A. baumannii (ATCC 19606): In a 96-well plate, ten two-fold serial dilutions of each compound tested were made from the highest concentration tested (100 μM) in a final volume of 100 μL in Mueller-Hinton broth (one column served as a blank). Each”, “NOTE: The concentration range tested for each compound was 0.2-100 μM.” left out
# as §2
# [5] = Staphylococcus aureus, ATCC25923, Table 2, S. aureus ATCC 25923, Luria Broth, read-out: MIC
# [6] = ATCC25923, S. aureus ATCC 25923, single replicate screen, read-out: Biofilm Inhibition IC50
# [7] = ATCC19606, A. baumannii ATCC 19606, 100 μM, read-out: % Biofilm Inhibition at 100 μM
# [8] = A. baumannii ATCC 19606, 100 μM, * = no growth inhibition at 200 μM
# [9] = Staphylococcus aureus, ATCC25923, Table 1, ATCC 25923, range tested 0.10 to 100 μM, read-out: Staphylococcus aureus MIC
# [10] = Staphylococcus aureus, ATCC25923, Table 1, ATCC 25923, read-out: Staphylococcus aureus MIC
Structure (SMILES),"MIC [1, 5]","IC50 [2, 6]",MIC/IC50 Biofilm ([2]; S. aureus ATCC 25923),"inhibition at 100 µM [3, 7]",increase in planktonic growth ([4]; 100 μM),planktonic growth inhibition at 200 μM [4],"inhibition of growth at 100 µM [4, 8]",Phenotype ([2]; S. aureus ATCC 25923),further results
O=C(/C=C/c1ccccc1)Oc1c(Br)cc(Br)c2nc3ccccc3nc12 [Compound 9a],> 100 µM,14800 nM,>6.8,52 ± 5%,~15%,did not inhibit planktonic growth,-18 ± 4%,–,–
O=C(Oc1c(Br)cc(Br)c2nc3ccccc3nc12)c1ccc(C(F)(F)F)cc1 [Compound 16a],–,1300 nM,9.6,29 ± 11%,–,–,-3 ± 2%,antibacterial,–
O=C(Oc1c(Br)cc(Br)c2nc3ccccc3nc12)c1cc(C(F)(F)F)cc(C(F)(F)F)c1 [Compound 17a],–,1100 nM,11.4,60 ± 8%,~15%,did not inhibit planktonic growth,-15 ± 3%,antibacterial,"planktonic growth while biofilm formation is inhibited (in words) ([4]; Mueller-Hinton broth, FIG. 20): dose-dependent increases in planktonic growth"
Cc1cc(C)c(C(=O)Oc2c(Br)cc(Br)c3nc4ccccc4nc23)c(C)c1 [Compound 19a],> 100 µM,> 100000 nM,–,44 ± 10%,~15%,did not inhibit planktonic growth,-14 ± 2%,inactive,–
COc1ccc(C(=O)Oc2c(Br)cc(Br)c3nc4ccccc4nc23)cc1 [Compound 20a],> 100 µM,950 nM,>105,17 ± 5%,–,–,-6 ± 4%,–,"IC50 ([2]; ATCC25923, S. aureus, three independent experiments, read-out: Biofilm inhibition IC50 (triplicate)): 10300 nM; Phenotype ([3]; A. baumannii ATCC 19606): inactive"
O=C(Oc1c(Br)cc(Br)c2nc3ccccc3nc12)c1ccc2ccccc2c1 [Compound 21a],> 100 µM,> 100000 nM,–,35 ± 9%,~15%,did not inhibit planktonic growth,-15 ± 6%,inactive,–
O=C(Oc1c(Br)cc(Br)c2nc3ccccc3nc12)c1ccc2c(c1)OCO2 [Compound 22a],> 100 µM,> 100000 nM,–,29 ± 4%,–,–,-14 ± 5%,–,–
"O=C(Oc1c(Br)cc(Br)c2nc3ccccc3nc12)c1ccc(F)cc1 [Compound 24, 2,4-Dibromophenazin-1-yl 4-fluorobenzoate]",1.56 µM,2440 nM,0.6,35 ± 4%,–,–,-16 ± 6%,antibacterial,"MIC [1, 9]: 1.56 µM; MIC [1, 10]: 0.74 µg/mL"
O=C(Oc1c(Br)cc(Br)c2nc3ccccc3nc12)c1cccs1 [Compound 24a],> 100 µM,790 nM,>127**,32 ± 8%,–,–,-10 ± 7%,antibacterial; also recorded: antibacterial**,"MIC ([1]; Table 2, S. aureus ATCC 25923, Luria Broth): >100** μM"
CN(C)C(=O)Oc1c(Br)cc(Br)c2nc3ccccc3nc12 [Compound 25a],–,–,–,–,–,–,–,–,"MIC ([1]; Staphylococcus aureus, ATCC25923): > 100 µM; IC50 ([2]; ATCC25923, read-out: Biofilm Inhibition IC50): > 100000 nM; inhibition at 100 µM ([3]; ATCC19606, read-out: % Biofilm Inhibition at 100 μM): 15 ± 1%; inhibition of growth at 100 µM [4]: -3 ± 1%"
"O=C(Oc1c(Br)cc(Br)c2nc3ccccc3nc12)C1CCCCC1 [Compound 26, 2,4-Dibromophenazin-1-yl cyclohexanecarboxylate]",> 100 µM,> 100000 nM,–,11 ± 1%,–,–,-25 ± 5%,inactive,"MIC [1, 9]: > 100 µM; MIC [1, 10]: > 46.5 µg/mL; Phenotype ([3]; A. baumannii ATCC 19606): inactive"
"COc1c(Br)cc(Br)c2nc3ccccc3nc12 [Compound 27, 2,4-Dibromo-1-methoxyphenazine]",–,–,–,–,–,–,–,–,"MIC [1, 9]: > 100 µM; MIC [1, 10]: > 36.9 µg/mL"
